Test results taken from ChEMBL document CHEMBL1806489, “Synthesis and biological evaluation of novel F-18 labeled pyrazolo[1,5-a]pyrimidine derivatives: potential PET imaging agents for tumor detection” (Bioorg Med Chem Lett, 2011).

How the values were obtained:
Liver [1] = assay: Biodistribution in mouse S180 cells xenografted Kunming mouse liver at 370 kBq/0.1 mL, iv after 120 mins by gamma counting; type: ADME, organism-based, CCRF S-180; settings: in vivo, 2 h
Nucleic Acid [2] = assay: Ratio of drug level in tumor to muscle in mouse S180 cells xenografted Kunming mouse at 370 kBq/0.1 mL, iv after 15 mins by gamma counting; type: ADME, organism-based, CCRF S-180; settings: in vivo, 0.25 h
Nucleic Acid [3] = assay: Ratio of drug level in tumor to blood in mouse S180 cells xenografted Kunming mouse at 370 kBq/0.1 mL, iv after 120 mins by gamma counting; type: ADME, organism-based, CCRF S-180; settings: tumour, 2 h
Heart [4] = assay: Biodistribution in mouse S180 cells xenografted Kunming mouse heart at 370 kBq/0.1 mL, iv after 15 mins by gamma counting; type: ADME, organism-based, CCRF S-180; settings: in vivo, 0.25 h
Liver [5] = assay: Biodistribution in mouse S180 cells xenografted Kunming mouse liver at 370 kBq/0.1 mL, iv after 30 mins by gamma counting; type: ADME, organism-based, CCRF S-180; settings: in vivo, 0.5 h
Mus musculus [6] = assay: Biodistribution in mouse S180 cells xenografted Kunming mouse excretory organ at 3.7 MBq, iv after 30 mins by PET imaging analysis; type: ADME, organism-based, CCRF S-180; settings: in vivo, 0.5 h
Mus musculus [7] = assay: Biodistribution in mouse S180 cells xenografted Kunming mouse tumor at 370 kBq/0.1 mL, iv after 120 mins by gamma counting; type: ADME, organism-based, Neoplasm, CCRF S-180; settings: in vivo, 2 h
Liver [8] = assay: Biodistribution in mouse S180 cells xenografted Kunming mouse liver at 370 kBq/0.1 mL, iv after 15 mins by gamma counting; type: ADME, organism-based, CCRF S-180; settings: in vivo, 0.25 h
Mus musculus [9] = assay: Biodistribution in mouse S180 cells xenografted Kunming mouse tumor at 370 kBq/0.1 mL, iv after 30 mins by gamma counting; type: ADME, organism-based, Neoplasm, CCRF S-180; settings: in vivo, 0.5 h
Kidney = assay: Biodistribution in mouse S180 cells xenografted Kunming mouse kidney at 370 kBq/0.1 mL, iv after 120 mins by gamma counting; type: ADME, organism-based, CCRF S-180; settings: in vivo, 2 h
Nucleic Acid [10] = assay: Ratio of drug level in tumor to blood in mouse S180 cells xenografted Kunming mouse at 370 kBq/0.1 mL, iv after 60 mins by gamma counting; type: ADME, organism-based, CCRF S-180; settings: tumour, 1 h
Heart [11] = assay: Biodistribution in mouse S180 cells xenografted Kunming mouse heart at 370 kBq/0.1 mL, iv after 60 mins by gamma counting; type: ADME, organism-based, CCRF S-180; settings: in vivo, 1 h
CCRF S-180 [12] = assay: Cellular uptake in mouse S180 cells relative to [18F]FDG; type: ADME, cell-based
Lung = assay: Biodistribution in mouse S180 cells xenografted Kunming mouse lung at 370 kBq/0.1 mL, iv after 5 mins by gamma counting; type: ADME, organism-based, CCRF S-180; settings: in vivo
Muscle tissue = assay: Biodistribution in mouse S180 cells xenografted Kunming mouse muscle at 370 kBq/0.1 mL, iv after 15 mins by gamma counting; type: ADME, organism-based, CCRF S-180; settings: in vivo, 0.25 h
Nucleic Acid [13] = assay: Ratio of drug level in tumor to brain in mouse S180 cells xenografted Kunming mouse at 370 kBq/0.1 mL, iv after 30 mins by gamma counting; type: ADME, organism-based, CCRF S-180; settings: in vivo, 0.5 h
Mus musculus [14] = assay: Biodistribution in mouse S180 cells xenografted Kunming mouse tumor at 370 kBq/0.1 mL, iv after 15 mins by gamma counting; type: ADME, organism-based, Neoplasm, CCRF S-180; settings: in vivo, 0.25 h
Mus musculus [15] = assay: Biodistribution in mouse S180 cells xenografted Kunming mouse left forelimb of tumor at 3.7 MBq, iv after 30 mins by PET imaging analysis; type: ADME, organism-based, Neoplasm, CCRF S-180; settings: in vivo, 0.5 h
CCRF S-180 [16] = assay: Cellular uptake in mouse S180 cells after 30 mins; type: ADME, cell-based; settings: ccrf s-180, 0.5 h
Nucleic Acid [17] = assay: Ratio of drug level in tumor to brain in mouse S180 cells xenografted Kunming mouse at 370 kBq/0.1 mL, iv after 60 mins by gamma counting; type: ADME, organism-based, CCRF S-180; settings: in vivo, 1 h
Mus musculus [18] = assay: Biodistribution in mouse S180 cells xenografted Kunming mouse right forelimb of tumor at 3.7 MBq, iv after 30 mins by PET imaging analysis; type: ADME, organism-based, Neoplasm, CCRF S-180; settings: in vivo, 0.5 h
Liver [19] = assay: Biodistribution in mouse S180 cells xenografted Kunming mouse liver at 370 kBq/0.1 mL, iv after 60 mins by gamma counting; type: ADME, organism-based, CCRF S-180; settings: in vivo, 1 h
Heart [20] = assay: Biodistribution in mouse S180 cells xenografted Kunming mouse heart at 370 kBq/0.1 mL, iv after 30 mins by gamma counting; type: ADME, organism-based, CCRF S-180; settings: in vivo, 0.5 h
Mus musculus [21] = assay: Biodistribution in mouse S180 cells xenografted Kunming mouse tumor at 370 kBq/0.1 mL, iv after 60 mins by gamma counting; type: ADME, organism-based, Neoplasm, CCRF S-180; settings: in vivo, 1 h
Brain = assay: Biodistribution in mouse S180 cells xenografted Kunming mouse brain at 370 kBq/0.1 mL, iv after 30 mins by gamma counting; type: ADME, organism-based, CCRF S-180; settings: in vivo, 0.5 h

| Compound | Drug uptake (Liver [1]) [% ID/g] | Ratio (Nucleic Acid [2]) | Ratio (Nucleic Acid [3]) | Drug uptake (Heart [4]) [% ID/g] | Drug uptake (Liver [5]) [% ID/g] | Drug uptake (Mus musculus [7]) [% ID/g] | Drug uptake (Liver [8]) [% ID/g] | Drug uptake (Mus musculus [9]) [% ID/g] | Drug uptake (Kidney) [% ID/g] | Ratio (Nucleic Acid [10]) | Drug uptake (Heart [11]) [% ID/g] | Drug uptake (Lung) [% ID/g] | Drug uptake (Muscle tissue) [% ID/g] | Ratio (Nucleic Acid [13]) | Drug uptake (Mus musculus [14]) [% ID/g] | Ratio (Nucleic Acid [17]) | Drug uptake (Liver [19]) [% ID/g] | Drug uptake (Heart [20]) [% ID/g] | Drug uptake (Mus musculus [21]) [% ID/g] | Drug uptake (Brain) [% ID/g] | other results |
| --- | --- | --- | --- | --- | --- | --- | --- | --- | --- | --- | --- | --- | --- | --- | --- | --- | --- | --- | --- | --- | --- |
| Cc1cc(NCC[18F])n2ncc(C#N)c2n1 | 1.84 | 1.14 | 0.98 | 3.57 | 3.17 | 2.88 | 4.02 | 5.51 | 1.92 | 0.81 | 3.46 | 6.61 | 3.84 | 2.23 | 4.37 | 1.53 | 2.45 | 4.06 | 2.95 | 2.47 | Drug uptake (Mus musculus [6]): Active; fold change (FC) (CCRF S-180 [12]): 2; Drug uptake (Mus musculus [15]): Active; Drug uptake (CCRF S-180 [16]): Active; Drug uptake (Mus musculus [18]): Not Active |
| Cc1cc(NCCNC(=O)c2ccc([N+](=O)[O-])cc2[18F])n2ncc(C#N)c2n1 | 2.05 | 0.96 | 2.5 | 2.78 | 7.3 | 0.21 | 10.12 | 1.24 | 0.74 | 1.66 | 0.63 | 5.6 | 2.07 | 10.44 | 1.99 | 8.69 | 4.07 | 1.16 | 0.74 | 0.12 | Drug uptake (CCRF S-180 [12]): < 7% |
